Laboratory results published in patent US8017773B2, “Cyclohexyl sulfonamide derivatives” (Hoffmann-La Roche Inc., priority 2006, dated 2011).

Target: T1, histamine 3 receptor (H3R) (Homo sapiens, UniProt Q9Y5N1)
T1 construct: expressed in transfected cells; host or cells: CHO cells (HR3-CHO), membrane preparation
Assay: Binding assay with 3H-(R)α-methylhistamine, competition binding on membranes of the human HR3-CHO cell line
Conditions: 3H(R)α-Methylhistamine 1 nM, Ki calculated from IC50 by Cheng-Prusoff
Procedure: Binding Assay with ^3H-(R)α-methylhistamine
Saturation binding experiments were performed using HR3-CHO membranes prepared as described in Takahashi, K, Tokita, S., Kotani, H. (2003) J. Pharmacol. Exp. Therapeutics 307, 213-218.
An appropriate amount of membrane (60 to 80 μg protein/well) was incubated with increasing concentrations of ^3H(R)α-Methylhistamine di-hydrochloride (0.10 to 10 nM). Non specific binding was determined using a 200 fold excess of cold (R)α-Methylhistamine dihydrobromide (500 nM final concentration). The incubation was carried out at room temperature (in deep-well plates shaking for three hours). The final volume in each well was 250 μl. The incubation was followed by rapid filtration on GF/B filters (pre-soaked with 100 μl of 0.5% PEI in Tris 50 mM shaking at 200 rpm for two hours). The filtration was made using a cell-harvester and the filter plates were then washed five times with ice cold washing buffer containing 0.5 M NaCl. After harvesting, the plates were dried at 55° C. for 60 min, then we added scintillation fluid (Microscint 40, 40 microl in each well) and the amount of radioactivity on the filter was determined in Packard top-counter after shaking the plates for two hours at 200 rpm at room temperature.
Binding Buffer: 50 mM Tris-HCl pH 7.4 and 5 mM MgCl2×6H2O pH 7.4. Washing Buffer: 50 mM Tris-HCl pH 7.4 and 5 mM MgCl2×6H2O and 0.5 M NaCl pH 7.4.
Indirect measurement of affinity of H3R inverse agonists: twelve increasing concentrations (ranging from 10 μM to 0.3 nM) of the selected compounds were always tested in competition binding experiments using membrane of the human HR3-CHO cell line. An appropriate amount of protein, e.g. approximately 500 cpm binding of RAMH at Kd, were incubated for 1 hour at room temperature in 250 μl final volume in 96-well plates in presence of ^3H(R)α-Methylhistamine (1 nM final concentration=Kd). […]
All compounds were tested at a single concentration in duplicates. […] Ki's were calculated from IC50 based on Cheng-Prusoff equation (Cheng, Y, Prusoff, W H (1973) Biochem Pharmacol 22, 3099-3108).

T1 sequence (Q9Y5N1 whole entry): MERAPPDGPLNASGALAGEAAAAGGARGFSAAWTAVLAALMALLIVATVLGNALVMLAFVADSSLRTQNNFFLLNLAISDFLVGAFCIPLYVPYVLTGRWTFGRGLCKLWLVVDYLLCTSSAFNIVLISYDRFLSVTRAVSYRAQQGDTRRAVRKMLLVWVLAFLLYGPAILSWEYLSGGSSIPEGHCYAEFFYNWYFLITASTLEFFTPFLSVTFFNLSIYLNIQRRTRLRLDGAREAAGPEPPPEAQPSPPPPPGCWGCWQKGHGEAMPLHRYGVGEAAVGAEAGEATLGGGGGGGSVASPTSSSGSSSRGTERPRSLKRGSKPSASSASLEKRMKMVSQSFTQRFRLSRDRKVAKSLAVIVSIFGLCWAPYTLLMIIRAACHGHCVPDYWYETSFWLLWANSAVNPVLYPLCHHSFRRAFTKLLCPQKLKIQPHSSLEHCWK

Row | SMILES | Ki [nM]
1 | CCCS(=O)(=O)N[C@H]1CC[C@H](C(=O)N2CCN(C(C)C)CC2)CC1 [Example 1, N-{trans-4-[(4-isopropylpiperazin-1-yl)carbonyl]cyclohexyl}propane-1-sulfonamide] | 54.8
2 | COc1ccc(S(=O)(=O)N[C@H]2CC[C@H](C(=O)N3CCN(C(C)C)CC3)CC2)c(OC)c1 [Example 15, N-{trans-4-[(4-isopropyl-piperazin-1-yl)carbonyl]-cyclohexyl}-2,4-dimethoxy-benzenesulfonamide] | 23.4
3 | CC(C)N1CCN(C(=O)[C@H]2CC[C@H](N(C(C)C)S(=O)(=O)c3ccc(F)c(Cl)c3)CC2)CC1 [Example 64, 3-chloro-4-fluoro-N-isopropyl-N-[trans-4-(4-isopropyl-piperazine-1-carbonyl)-cyclohexyl]-benzenesulfonamide] | 8.9
